The target in series [1] is Glycogen synthase kinase-3 beta (Homo sapiens) (UniProt P49841). As to the kind of experiment: Inhibition of wild-type human full length GSK3B (M1 to T433 residues) expressed in mammalian expression system at 10 uM by Kinomescan method relative to control.
Series [2] can be described thus: Inhibition of GSK3 (unknown origin) using CREB peptide as substrate. More on the design: species or system Homo sapiens.
Series [3] deals with Rattus norvegicus. As to the kind of experiment: Antidiabetic activity in ZDF rat administered as single dose via oral gavage by OGTT. It is filed as functional.
Series [4] addresses Serine/threonine-protein kinase B-raf (Homo sapiens) (UniProt P15056). Put plainly: Inhibition of wild-type human partial length BRAF (S429 to E741 residues) expressed in mammalian expression system at 10 uM by Kinomescan method relative to control.
Series [5] concerns the target Mitogen-activated protein kinase 9 (Homo sapiens) (UniProt P45984). Put plainly: Inhibition of wild-type human full length JNK2 (M1 to Q382 residues) expressed in mammalian expression system at 10 uM by Kinomescan method relative to control.
A short description of series [6]: Oral bioavailability in ZDF rat. Format: ADME, organism-based. The settings on record: in vivo.
Series [7] can be described thus: Inhibition of GSK3 in CHO cells expressing insulin receptor assessed as activation of glycogen synthase measured after 30 mins in presence of glucose-6-phosphate by filter paper assay. It is filed as cell-based. The settings on record: Cricetulus griseus, 0.5 h.
Series [8] can be described thus: Half life in Beagle dog. Format: ADME, Canis lupus familiaris. The settings on record: in vivo.
Series [9] can be described thus: Half life in ZDF rat. Format: ADME. The settings on record: in vivo.
The target of series [10] is Glycogen synthase kinase-3 alpha (Homo sapiens) (UniProt P49840). As to the kind of experiment: Inhibition of wild-type human full length GSK3A (M1 to S483 residues) expressed in bacterial expression system at 10 uM by Kinomescan method relative to control.
Chain of Glycogen synthase kinase-3 alpha (Homo sapiens) (P49840 2-483 limits assumed): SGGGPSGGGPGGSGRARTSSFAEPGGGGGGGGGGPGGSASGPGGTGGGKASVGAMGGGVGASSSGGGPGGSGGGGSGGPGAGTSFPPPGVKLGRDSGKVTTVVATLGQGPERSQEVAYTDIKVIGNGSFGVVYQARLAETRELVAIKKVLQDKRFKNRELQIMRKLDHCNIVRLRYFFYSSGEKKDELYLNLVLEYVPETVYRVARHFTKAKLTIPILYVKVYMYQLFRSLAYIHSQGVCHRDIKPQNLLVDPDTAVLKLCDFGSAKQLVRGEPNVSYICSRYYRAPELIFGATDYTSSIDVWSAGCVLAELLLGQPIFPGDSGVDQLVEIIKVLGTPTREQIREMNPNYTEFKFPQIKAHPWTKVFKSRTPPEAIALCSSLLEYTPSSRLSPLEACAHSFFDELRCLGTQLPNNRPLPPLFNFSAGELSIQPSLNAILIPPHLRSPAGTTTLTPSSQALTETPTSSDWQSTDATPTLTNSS
The target of series [11] is Mitogen-activated protein kinase 10 (Homo sapiens) (UniProt P53779). Put plainly: Inhibition of wild-type human partial length JNK3 (V28 to Q422 residues) expressed in mammalian expression system at 10 uM by Kinomescan method relative to control.
Chain of Mitogen-activated protein kinase 10 (Homo sapiens) (P53779 whole entry, the tested form may be a part): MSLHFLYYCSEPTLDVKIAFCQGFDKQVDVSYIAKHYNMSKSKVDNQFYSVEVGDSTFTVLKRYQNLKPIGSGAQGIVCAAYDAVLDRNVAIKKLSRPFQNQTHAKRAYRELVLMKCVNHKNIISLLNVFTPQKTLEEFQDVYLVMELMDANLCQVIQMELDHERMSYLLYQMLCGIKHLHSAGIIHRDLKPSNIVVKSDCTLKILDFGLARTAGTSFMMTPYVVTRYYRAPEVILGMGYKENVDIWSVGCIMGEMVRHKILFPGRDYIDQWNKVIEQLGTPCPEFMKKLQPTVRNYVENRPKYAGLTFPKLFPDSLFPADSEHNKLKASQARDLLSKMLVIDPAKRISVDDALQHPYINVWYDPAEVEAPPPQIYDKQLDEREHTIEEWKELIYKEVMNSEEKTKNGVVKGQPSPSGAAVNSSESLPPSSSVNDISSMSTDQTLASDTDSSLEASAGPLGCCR
For series [12], the target named is Mitogen-activated protein kinase 8 (Homo sapiens) (UniProt P45983). As to the kind of experiment: Inhibition of wild-type human full length JNK1 (M1 to Q384 residues) expressed in mammalian expression system at 10 uM by Kinomescan method relative to control.
Chain of Mitogen-activated protein kinase 8 (Homo sapiens) (P45983 whole entry, the tested form may be a part): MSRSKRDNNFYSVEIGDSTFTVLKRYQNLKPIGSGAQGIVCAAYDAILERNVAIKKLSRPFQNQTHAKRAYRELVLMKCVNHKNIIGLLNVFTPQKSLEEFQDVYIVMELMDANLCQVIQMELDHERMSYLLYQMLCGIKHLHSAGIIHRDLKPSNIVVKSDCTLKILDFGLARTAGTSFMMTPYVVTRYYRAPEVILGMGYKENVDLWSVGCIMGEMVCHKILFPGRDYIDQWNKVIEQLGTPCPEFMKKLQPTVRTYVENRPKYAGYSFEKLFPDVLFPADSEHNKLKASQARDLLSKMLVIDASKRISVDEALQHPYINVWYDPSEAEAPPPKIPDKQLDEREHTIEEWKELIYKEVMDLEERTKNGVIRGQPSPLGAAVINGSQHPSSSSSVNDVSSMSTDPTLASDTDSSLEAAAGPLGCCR
Series [13] is described as follows: Activity in CHO cells expressing insulin receptor assessed as activation of glycogen synthase.

Results on 23 compounds are retold here after ChEMBL document CHEMBL4610055, “Discovery and optimization of novel pyridines as highly potent and selective glycogen synthase kinase 3 inhibitors” (Bioorg Med Chem Lett, 2020).

The structures appear in SMILES notation.

Chain of Glycogen synthase kinase-3 beta (Homo sapiens) (P49841 whole entry, looked up, the tested form may be a part): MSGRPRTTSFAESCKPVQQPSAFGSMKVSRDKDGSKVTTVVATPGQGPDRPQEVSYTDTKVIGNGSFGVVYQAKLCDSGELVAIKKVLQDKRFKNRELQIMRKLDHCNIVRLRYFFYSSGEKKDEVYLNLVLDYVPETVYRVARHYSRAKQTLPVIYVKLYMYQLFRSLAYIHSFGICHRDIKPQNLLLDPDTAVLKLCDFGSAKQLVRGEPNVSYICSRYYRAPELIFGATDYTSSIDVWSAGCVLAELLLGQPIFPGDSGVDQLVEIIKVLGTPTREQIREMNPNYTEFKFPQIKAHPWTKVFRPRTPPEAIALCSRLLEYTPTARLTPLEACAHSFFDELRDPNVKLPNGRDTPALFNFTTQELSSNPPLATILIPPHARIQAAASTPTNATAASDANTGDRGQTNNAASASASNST
Chain of Mitogen-activated protein kinase 9 (Homo sapiens) (P45984 whole entry, looked up, the tested form may be a part): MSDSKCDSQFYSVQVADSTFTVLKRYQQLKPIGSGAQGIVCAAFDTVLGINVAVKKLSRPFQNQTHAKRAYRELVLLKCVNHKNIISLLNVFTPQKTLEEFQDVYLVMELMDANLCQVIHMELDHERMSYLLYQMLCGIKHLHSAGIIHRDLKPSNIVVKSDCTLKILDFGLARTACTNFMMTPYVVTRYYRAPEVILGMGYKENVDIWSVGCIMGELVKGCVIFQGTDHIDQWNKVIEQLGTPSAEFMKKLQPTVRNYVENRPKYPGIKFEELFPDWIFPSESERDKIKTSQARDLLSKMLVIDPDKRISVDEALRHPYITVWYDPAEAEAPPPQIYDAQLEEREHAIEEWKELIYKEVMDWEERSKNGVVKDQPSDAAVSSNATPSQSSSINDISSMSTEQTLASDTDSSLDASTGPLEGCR
Chain of Serine/threonine-protein kinase B-raf (Homo sapiens) (P15056 whole entry, the tested form may be a part): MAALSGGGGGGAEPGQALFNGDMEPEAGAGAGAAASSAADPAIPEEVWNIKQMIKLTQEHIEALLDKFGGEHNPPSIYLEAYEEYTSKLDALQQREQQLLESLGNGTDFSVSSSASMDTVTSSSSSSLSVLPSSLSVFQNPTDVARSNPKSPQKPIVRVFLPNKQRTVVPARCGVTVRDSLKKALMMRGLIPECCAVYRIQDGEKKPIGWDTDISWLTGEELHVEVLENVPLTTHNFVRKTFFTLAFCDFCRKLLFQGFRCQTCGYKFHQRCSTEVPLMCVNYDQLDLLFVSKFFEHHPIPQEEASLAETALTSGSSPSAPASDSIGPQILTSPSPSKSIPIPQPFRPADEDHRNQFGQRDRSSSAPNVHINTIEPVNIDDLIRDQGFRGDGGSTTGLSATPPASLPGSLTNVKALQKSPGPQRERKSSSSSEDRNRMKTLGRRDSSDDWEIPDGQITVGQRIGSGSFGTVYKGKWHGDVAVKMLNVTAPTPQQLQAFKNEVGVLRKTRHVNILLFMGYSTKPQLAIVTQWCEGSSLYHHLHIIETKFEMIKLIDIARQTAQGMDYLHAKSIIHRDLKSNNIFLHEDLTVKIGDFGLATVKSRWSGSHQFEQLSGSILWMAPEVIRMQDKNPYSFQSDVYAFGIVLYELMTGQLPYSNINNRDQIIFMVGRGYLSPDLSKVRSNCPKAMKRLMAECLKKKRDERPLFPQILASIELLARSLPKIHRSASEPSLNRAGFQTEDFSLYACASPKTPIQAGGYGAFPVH

For orientation: inhibition means how much of the control response was suppressed. By IC50 is commonly meant the point on the concentration scale where inhibition reaches its midpoint. Read a low IC50 as greater potency in that assay. As a reminder, the ED50 is the midpoint of the dose-response relation. A word on the bioavailability: it is the share of a dose that reaches the circulation, judged against a reference dose that is usually intravenous. The low end stands for poor availability, the high end for good availability. The term EC50 denotes the concentration at which the effect is half-maximal. In general, half-life refers to the time needed for the level to fall by half in the phase considered. Lower therefore signals fast loss. Regarding `CN1CCN(c2ccc(NCCNc3ccc([N+](=O)[O-])c(N)n3)nc2-c2ccc(Cl)cc2Cl)C(=O)C1`, the inhibition is 95.8% in series [1]; 91.8% in series [4]; 97.4% in [5]; 99.5% in [10]; 98.3% in [11]; 92.2% in series [12]. In series [2], this compound yielded a half-maximal inhibitory concentration (IC50) of 8 nM. This compound also gave a 50% effective dose (ED50) in series [3] of 10 mg/kg. In series [6], this compound registered a bioavailability of 30%. For the same compound, in series [7], the EC50 worked out at 130 nM. Moreover, the half-life in [8] was found to be 2.72 h; in series [9], 3.42 h.

In series [2], `Nc1nc(NCCNc2ccc(N3CCN(C4CC4)CC3=O)c(-c3ccc(Cl)cc3Cl)n2)ccc1[N+](=O)[O-]` returned an IC50 of 13 nM. Besides, the concentration for a half-maximal effect (EC50) in series [7] worked out at 40 nM.

`C[C@@H](CNc1ccc(N2CCN(C)CC2=O)c(-c2ccc(Cl)cc2Cl)n1)Nc1ccc([N+](=O)[O-])c(N)n1` returned a half-maximal inhibitory concentration (IC50) in series [2] of 66 nM. Besides, in series [7], the EC50 was 1050 nM.

Consider `Cc1cnc(-c2cnc(NCCNc3ccc(C#N)cn3)nc2-c2ccc(Cl)cc2Cl)[nH]1` [LADUVIGLUSIB], for which the EC50 in series [13] and in series [7] was 770 nM each time.

Consider `CN1CCN(c2ccc(NCCNc3ccc([N+](=O)[O-])c(N)n3)nc2-c2ccccc2)C(=O)C1`, for which the 50% inhibitory concentration (IC50) in series [2] came to 202 nM.

Compound `CN1CCN(c2ccc(NCCNc3ccc([N+](=O)[O-])c(N)n3)nc2-c2ccccc2Cl)C(=O)C1` registered a half-inhibitory concentration (IC50) in series [2] of 29 nM. For the same compound, the EC50 in [7] came out at 1350 nM.

For `CN1CCN(c2ccc(NCCNc3ccc([N+](=O)[O-])c(N)n3)nc2-c2ccccc2C(F)(F)F)C(=O)C1`, the IC50 in [2] worked out at 57 nM. The EC50 in [7] was determined as 760 nM.

Compound `CN1CCN(c2ccc(NCCNc3ccc([N+](=O)[O-])c(N)n3)nc2-c2ccc(Cl)cc2)C(=O)C1` yielded an IC50 in series [2] of 44 nM. In [7], the EC50 stood at 760 nM.

Regarding `CN1CCN(c2ccc(NCCNc3ccc([N+](=O)[O-])c(N)n3)nc2-c2ccc(F)cc2F)C(=O)C1`, the IC50 in series [2] came out at 69 nM. Besides, in [7], the EC50 is 1080 nM.

In series [2], `Nc1nc(NCCNc2ccc(N3CCCCC3=O)c(-c3ccc(Cl)cc3Cl)n2)ccc1[N+](=O)[O-]` returned an IC50 of 13 nM. In addition, in series [7], the EC50 amounted to 70 nM.

As to `CCc1ccc(-c2nc(NCCNc3ccc([N+](=O)[O-])c(N)n3)ccc2N2CCN(C)CC2=O)cc1`, in series [2], it took 52 nM to reach half-maximal inhibition (IC50). In addition, the EC50 in [7] stood at 290 nM.

With `Nc1nc(NCCNc2ccc(NC(=O)CNCCO)c(-c3ccc(Cl)cc3Cl)n2)ccc1[N+](=O)[O-]`, in series [2], half-maximal inhibition (IC50) required 12 nM. Moreover, the 50% effective concentration (EC50) in series [7] was found to be 1600 nM.

As for `Nc1nc(NCCNc2ccc(N3CCCC3=O)c(-c3ccc(Cl)cc3Cl)n2)ccc1[N+](=O)[O-]`, in series [2], the IC50 was 5 nM. Besides, in series [7], the EC50 is 530 nM.

Compound `CN1CCN(c2ccc(NCCNc3ccc([N+](=O)[O-])c(N)n3)nc2-c2cccc(Cl)c2)C(=O)C1` came in with a half-inhibitory concentration (IC50) in series [2] of 74 nM. Further, the EC50 in [7] turned out to be 3000 nM.

With `C[C@@H](CNc1ccc([N+](=O)[O-])c(N)n1)Nc1ccc(N2CCN(C)CC2=O)c(-c2ccc(Cl)cc2Cl)n1`, in series [2], inhibition was half-maximal at 36 nM (IC50). In addition, the EC50 in [7] was 310 nM.

For `Nc1nc(NCCNc2ccc(N3CCN(CC(F)(F)F)CC3=O)c(-c3ccc(Cl)cc3Cl)n2)ccc1[N+](=O)[O-]`, in series [2], the IC50 is 18 nM. Also, the EC50 in series [7] came to 1800 nM.

Turning to `C[C@H](CNc1ccc(N2CCN(C)CC2=O)c(-c2ccc(Cl)cc2Cl)n1)Nc1ccc([N+](=O)[O-])c(N)n1`, the IC50 in series [2] came to 1010 nM. This lies in the single-digit micromolar range.

In [2], `C[C@H](CNc1ccc([N+](=O)[O-])c(N)n1)Nc1ccc(N2CCN(C)CC2=O)c(-c2ccc(Cl)cc2Cl)n1` gave a half-maximal inhibitory concentration (IC50) of 207 nM.

In [2], `CC(=O)N1CCN(c2ccc(NCCNc3ccc([N+](=O)[O-])c(N)n3)nc2-c2ccc(Cl)cc2Cl)C(=O)C1` yielded an IC50 of 13 nM. Besides, the EC50 in [7] is 1400 nM.

In series [2], `Nc1nc(NCCNc2ccc(N3CCOCC3=O)c(-c3ccc(Cl)cc3Cl)n2)ccc1[N+](=O)[O-]` displayed a 50% inhibitory concentration (IC50) of 11 nM. The EC50 in series [7] came to 510 nM.

In [2], `Nc1nc(NCCNc2ccc(N3CCNCC3=O)c(-c3ccc(Cl)cc3Cl)n2)ccc1[N+](=O)[O-]` yielded a half-maximal inhibitory concentration (IC50) of 11 nM. In addition, the EC50 in series [7] is 140 nM.

Consider `CN1CCN(c2ccc(NCCNc3ccc([N+](=O)[O-])c(N)n3)nc2-c2ccoc2)C(=O)C1`, for which, in series [2], the IC50 was 3700 nM.

The compound `CN1CCN(c2ccc(N(C)CCNc3ccc([N+](=O)[O-])c(N)n3)nc2-c2ccc(Cl)cc2Cl)C(=O)C1` returned a 50% inhibitory concentration (IC50) in [2] of 15 nM. In [7], the EC50 worked out at 220 nM.
